Reference: patent publication US11066630B2, “Device and method for analysis of tissue constructs” (The Johns Hopkins University, priority 2015, dated 2021)

Legend:
[1] = test system: ASM cells in lung-chip; assay: Cell rheology measurements using the lung-chip platform (frequency-domain OMTC); assay type: cell-based, human; settings: frequency-domain OMTC on lung-chip
From the text: (§1) Magnetic twisting cytometry with optical detection was used to quantitatively assess dynamic changes in cell stiffness as an indicator of single-cell contraction or relaxation of HASM cells, as previously described. In brief, ferrimagnetic microbeads (4.5 μm in diameter) coated with synthetic Arg-Gly-Asp (RGD) containing peptide (American Peptide Company) bound to the cytoskeleton through cell surface integrin receptors were magnetized horizontally. Subsequently, a vertically aligned homogeneous magnetic field varying sinusoidally in time applied an oscillatory torque, leading to both a rotation and a pivoting displacement of the bead (FIG. 18B). Measurements were performed at a single frequency of 0.75 Hz or oscillatory frequencies between 10^−1 and 10^3 Hz for cell rheology measurements (FIG. 21). Lateral bead displacements in response to the resulting oscillatory torque were detected optically (in spatial resolution of ˜5 nm), and the ratio of specific torque to bead displacement was computed as the cell stiffness in units of Pascals (Pa) per nanometer. For drug-induced single-cell contraction or relaxation, changes in HASM stiffness were measured in real-time for the duration of 300 seconds. For each individual cell, the baseline stiffness was measured for the first 60 seconds, and after drug addition, the stiffness was measured continuously for the next 240 seconds.

[2] = test system: primary ASM cells from asthmatic and non-asthmatic donors; assay: HASM stiffness measurements: drug-induced single-cell contraction or relaxation, asthmatic vs non-asthmatic ASM cells; assay type: cell-based, human
Method: (§2) Primary human epithelial and smooth muscle cells were harvested from the proximal airways (first through third order bronchi) of donor lungs unsuitable for transplantation (Table I) in accordance with the Institutional Review Boards at the University of Pennsylvania. Primary normal human bronchial epithelial (NHBE) cells were grown in collagen-coated flasks (GIBCO) using serum-free BEGM Bronchial Epithelial Cell Growth Medium™ with BulletKit™ Supplements (Lonza) and subsequently trypsinized and seeded onto porous polycarbonate membranes (either inside microfluidic devices or on transwell inserts) at 100,000 cells/cm^2. The polycarbonate membranes were coated with collagen type I (30 μg/ml; GIBCO) at 37° C. for 18 h before cell seeding. After NHBE cells reached confluence (within 3-5 days), the apical medium was removed and the basal medium was replaced with differentiation medium (PneumaCult-ALI™ Medium and Supplements, StemCell Technologies). The NHBE cells were maintained at the ALI for 2-3 weeks, until they differentiated into a pseudostratified layer. Excess mucus on the air side was washed away with warm PBS weekly. After NHBE differentiation in the microfluidic chips, primary HASM cells were seeded into the bottom compartment. Approximately 18 h before the live-cell micromechanical experiments using MTC, the culture medium of HASM cells was changed to serum-free minimal media (1:1 vol/vol mixture of DMEM Dulbecco's modified Eagle's medium and Ham's F-12 medium, supplemented with insulin […]), and cells were maintained at 37° C. in humidified air containing 5% CO2. The overnight media was then washed and replaced with fresh minimal media before the experiments. This minimal media procedure was applied to NHBE cells as well before compressive-stress application. For experiments involving Celecoxib or Verteporfin (Sigma Aldrich), NHBE cells were pre-treated with the drugs before the second washing step, as the presence of Celecoxib in the infranatant affected HASM mechanics (FIGS. 19A-B), and Verteporfin in the infranatant would have phototoxic effects on HASM cells during the live-cell micromechanical measurements. Since Verteporfin is a photosensitizer, treatment of NHBE cells was always performed in the dark.
as §1, with “Subsequently, a vertically aligned homogeneous magnetic field varying sinusoidally in time applied an oscillatory torque, leading to both a rotation and a pivoting displacement of the bead (FIG. 18B). Measurements were performed at a single frequency of 0.75 Hz or oscillatory frequencies between 10^−1 and 10^3 Hz for cell rheology measurements (FIG. 21).” left out

[3] = test system: ASM cells in lung-chip co-culture with airway epithelial cells; assay: Lung-chip: ASM contraction after compressive stress on the epithelial layer (OMTC); assay type: cell-based, human; settings: after 30 cmH2O compressive stress; 10 μM methacholine, followed by 1 μM PGE2
Method: The upper and lower layer of the microfluidic device were fabricated using standard soft lithography techniques by casting a flexible and optically transparent polydimethylsiloxane (PDMS) polymer on a mold and cross-linking at 80° C. for 2 hours. The mold was fabricated using optical lithography with an epoxy-based negative photoresist (SU8) that yields thick and robust structures. The two PDMS layers each had compartments with 5 mm width, 20 mm length, and 300 μm height, and around 100 support pillars with 200 μm diameter distributed across the compartments. The two compartments were separated by an optically-clear polycarbonate membrane (Sterlitech) with 5 μm diameter holes, allowing cells on both sides of the membranes to chemically interact. To construct the complete chip, first a PDMS layer and the polycarbonate membrane were exposed to an oxygen plasma (30 W, 700 mTorr, 30 sec) to chemically activate their surfaces. Immediately after the plasma treatment, the PDMS surface was silanized using 5 μl of an APTES solution (1% 3-aminopropyltriethoxysilane in water) and the polycarbonate membrane was allowed to bond to it. After 2 hours of bonding at room temperature, the process was repeated to bond the second PDMS compartment to the other side of the polycarbonate membrane. […]

[4] = test system: NHBE cells; assay: PGE2 content of epithelial infranatant (EIA kit); assay type: cell-based, human; settings: epithelial cells with or without compressive stress
Method: (§3) Primary human epithelial and smooth muscle cells were harvested from the proximal airways (first through third order bronchi) of donor lungs unsuitable for transplantation (Table I) in accordance with the Institutional Review Boards at the University of Pennsylvania. Primary normal human bronchial epithelial (NHBE) cells were grown in collagen-coated flasks (GIBCO) using serum-free BEGM Bronchial Epithelial Cell Growth Medium™ with BulletKit™ Supplements (Lonza) and subsequently trypsinized and seeded onto porous polycarbonate membranes (either inside microfluidic devices or on transwell inserts) at 100,000 cells/cm^2. The polycarbonate membranes were coated with collagen type I (30 μg/ml; GIBCO) at 37° C. for 18 h before cell seeding. […]
Media from the basal compartments (infranatant) were collected from control samples or after application of 30 cmH2O compressive stress on NHBE cells, and were assayed for the presence of PGE2 using a commercial EIA kit (DetectX™ Prostaglandin E2 High Sensitivity Immunoassay Kit, Arbor Assays, Ann Arbor, Mich.) following the manufacturer's instructions. The absorbance in the samples was measured at 450 nm with a microplate reader (Molecular Devices, Sunnyvale, Calif.). […]

[5] = test system: primary human airway epithelial cells (NHBE); readout on HASM cells; assay: ASM cell contraction (OMTC stiffness) in response to infranatant from drug-treated epithelial cells exposed to compressive stress; assay type: cell-based; settings: epithelial cells treated with drug; 30 cmH2O, 0h vs 3h pressure
Method: as §3, with “seeding. After NHBE cells reached confluence (within 3-5 days), the apical medium was removed and the basal medium was replaced with differentiation medium (PneumaCult-ALI™ Medium and Supplements, StemCell Technologies). The NHBE cells were maintained at the ALI for 2-3 weeks, until they differentiated into a pseudostratified layer. Excess mucus on the air side was washed away with warm PBS weekly.” for “seeding.”
Magnetic twisting cytometry with optical detection was used to quantitatively assess dynamic changes in cell stiffness as an indicator of single-cell contraction or relaxation of HASM cells, as previously described. […]

[6] = test system: airway epithelial cells; assay: Gene expression analysis (TaqMan real-time PCR) in airway epithelial cells; assay type: cell-based, human
Method: as §2, with “For experiments involving Celecoxib or Verteporfin (Sigma Aldrich), NHBE cells were pre-treated with the drugs before the second washing step, as the presence of Celecoxib in the infranatant affected HASM mechanics (FIGS. 19A-B), and Verteporfin in the infranatant would have phototoxic effects on HASM cells during the live-cell micromechanical measurements. Since Verteporfin is a photosensitizer, treatment of NHBE cells was always performed in the dark.” left out

NCCc1c[nH]cn1 [Histamine, histamine]
ASM cell stiffness [1]: increases ASM cell stiffness | Stress relaxation of ASM cells [1]: more difficult (slower) for the cells to relax stress

CCCCC[C@H](O)/C=C/[C@H]1[C@H](O)CC(=O)[C@@H]1C/C=C\CCCC(=O)O [PGE2]
Stiffness change (contraction or relaxation), asthmatic compared with non-asthmatic ASM cells [2]: asthmatic ASM cells relaxed more | ASM response to agonist ([2]; different doses and different patient samples): consistently caused ASM relaxation | ASM contraction in lung-chip after pressure turned off [3]: did not lead to relaxation

CCCCC[C@H](O)/C=C/[C@@H]1[C@@H](C/C=C\CCCC(=O)O)[C@@H](O)C[C@H]1O [PGF2α]
Stiffness change (contraction or relaxation), asthmatic compared with non-asthmatic ASM cells [2]: did not yield a difference in response between asthmatic and non-asthmatic ASM cells

C=C1[C@@H](C)[C@H]2[C@H](Cc3ccccc3)NC(=O)[C@]23[C@H](OC(C)=O)/C=C/[C@@](C)(O)C(=O)[C@@H](C)C/C=C/[C@H]3[C@@H]1O [cytochalasin D]
ASM cell stiffness [1]: reduces ASM cell stiffness | Stress relaxation of ASM cells [1]: easier (faster) for the cells to relax stress

CC(C)NCC(O)c1ccc(O)c(O)c1 (stereo not shown) [isoproterenol]
Stiffness change (contraction or relaxation), asthmatic compared with non-asthmatic ASM cells [2]: less relaxation in asthmatic ASM cells

CC(=O)OC(C)C[N+](C)(C)C (stereo not shown) [methacholine]
Stiffness change (contraction or relaxation), asthmatic compared with non-asthmatic ASM cells [2]: stronger contraction in asthmatic ASM cells | ASM contraction in lung-chip after pressure turned off [3]: only slightly increased ASM contraction

Verteporfin
PGE2 content of the infranatants [4]: less PGE2 production and suppression of the effects of compressive stress | Effect of compressive stress on epithelial cells, read as ASM cell contraction in response to 0h and 3h-pressure epithelial samples [5]: abrogated the effects of compressive stress | COX2 (PTGS2) mRNA expression ([6]; airway epithelial cells): downregulated COX2 | Regulation of COX1 and COX2 mRNA by compressive stress ([6]; airway epithelial cells, compressive stress): prohibited the downregulation of COX1 and upregulation of COX2 by compressive stress | Upregulation of CTGF mRNA by compressive stress ([6]; epithelial cells): this upregulation was abrogated
